Assay results taken from patent US9981959B2, “Thiazolyl and oxazolyl urea, thiourea, guanidine and cyanoguanidine compounds as TrkA kinase inhibitors” (Array BioPharma Inc., priority 2012, dated 2018).

Experiments:
Assay in all cases: KinaseProfiler off-target kinase profiling
Assay type in all cases: biochemical
Conditions in all cases: 10 μM, ATP near Km
[1] = molecular target: T1, DAPK1 (Homo sapiens, UniProt P53355)
T1 construct: purchased Millipore, Inc. (KinaseProfiler service)
Protocol: (§1) A representative compound of the invention (Example 2) was tested for off-target kinase activity at a concentration of 10 μM by Millipore, Inc. in their KinaseProfiler™ service against all the kinases available in their full kinase panel. The compound was run in duplicate at a concentration of ATP near the Km for each individual kinase according to Millipore's specifications. The results are shown in Table B. Data are reported as percent of control (POC) and are the average of the two replicates.

[2] = molecular target: T2, Axl (Homo sapiens, UniProt P30530)
T2 construct: purchased Millipore (KinaseProfiler service)
Protocol: as §1

[3] = molecular target: T3, PKCepsilon (Homo sapiens, UniProt Q02156)
T3 construct: purchased Millipore, Inc. (KinaseProfiler service)
Protocol: as §1

[4] = molecular target: T4, CDK7/cyclinH/MAT1 (Homo sapiens, UniProt P50613)
T4 construct: purchased Millipore, Inc. (KinaseProfiler service)
Protocol: as §1

[5] = molecular target: T5, DAPK2 (Homo sapiens, UniProt Q9UIK4)
T5 construct: purchased Millipore, Inc. (KinaseProfiler service)
Protocol: as §1

[6] = molecular target: T6, BrSK1 (Homo sapiens, UniProt Q8TDC3)
T6 construct: purchased Millipore (KinaseProfiler service)
Protocol: as §1

[7] = molecular target: T7, IR Activated (Homo sapiens, UniProt P06213)
T7 construct: purchased Millipore, Inc. (KinaseProfiler service)
T7 sequence (P06213 1005-1310 limits assumed): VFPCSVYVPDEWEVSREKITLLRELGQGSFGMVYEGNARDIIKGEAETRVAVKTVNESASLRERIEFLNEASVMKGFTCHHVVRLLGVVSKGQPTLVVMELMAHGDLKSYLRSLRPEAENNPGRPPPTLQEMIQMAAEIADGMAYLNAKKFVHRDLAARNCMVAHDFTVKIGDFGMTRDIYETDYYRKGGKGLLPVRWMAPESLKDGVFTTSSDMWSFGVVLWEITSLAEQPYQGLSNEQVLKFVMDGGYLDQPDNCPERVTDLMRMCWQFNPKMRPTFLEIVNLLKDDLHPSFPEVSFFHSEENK
Protocol: as §1

[8] = molecular target: T8, MKK4_m (Mus musculus, UniProt P47809)
T8 construct: purchased Millipore, Inc. (KinaseProfiler service)
Protocol: as §1

[9] = molecular target: T9, HIPK3 (Homo sapiens, UniProt Q9H422)
T9 construct: purchased Millipore, Inc. (KinaseProfiler service)
Protocol: as §1

[10] = molecular target: T10, Pim-3 (Homo sapiens, UniProt Q86V86)
T10 construct: purchased Millipore, Inc. (KinaseProfiler service)
Protocol: as §1

[11] = molecular target: T11, Pim-2 (Homo sapiens, UniProt Q9P1W9)
T11 construct: purchased Millipore, Inc. (KinaseProfiler service)
T11 sequence (Q9P1W9 whole entry): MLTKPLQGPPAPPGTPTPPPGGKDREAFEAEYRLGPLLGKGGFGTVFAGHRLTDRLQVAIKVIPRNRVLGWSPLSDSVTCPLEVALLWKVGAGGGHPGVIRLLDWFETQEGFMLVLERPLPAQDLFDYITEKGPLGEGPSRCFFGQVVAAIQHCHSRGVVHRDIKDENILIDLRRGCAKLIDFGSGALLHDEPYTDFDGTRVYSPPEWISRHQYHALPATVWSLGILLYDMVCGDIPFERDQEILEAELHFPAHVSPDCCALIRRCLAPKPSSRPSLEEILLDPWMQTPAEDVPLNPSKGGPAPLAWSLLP
Protocol: as §1

[12] = molecular target: T12, EphA7 (Rattus norvegicus, UniProt P54759)
T12 construct: purchased Millipore, Inc. (KinaseProfiler service)
T12 sequence (P54759 577-998 limits assumed): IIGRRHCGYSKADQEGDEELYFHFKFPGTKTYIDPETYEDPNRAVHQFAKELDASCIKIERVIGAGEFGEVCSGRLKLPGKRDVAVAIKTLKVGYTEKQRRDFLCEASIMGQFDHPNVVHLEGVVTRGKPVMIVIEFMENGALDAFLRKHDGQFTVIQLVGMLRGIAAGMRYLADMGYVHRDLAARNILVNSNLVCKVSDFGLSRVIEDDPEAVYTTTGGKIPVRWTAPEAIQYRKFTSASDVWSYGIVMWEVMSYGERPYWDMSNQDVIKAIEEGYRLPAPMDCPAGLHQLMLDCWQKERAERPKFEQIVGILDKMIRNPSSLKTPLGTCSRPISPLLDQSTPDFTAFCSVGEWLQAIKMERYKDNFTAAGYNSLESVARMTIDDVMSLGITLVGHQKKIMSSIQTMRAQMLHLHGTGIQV
Protocol: as §1

[13] = molecular target: T13, Abl2 (Homo sapiens, UniProt P42684)
T13 construct: purchased Millipore (KinaseProfiler service)
Protocol: as §1

[14] = molecular target: T14, TAK1 (Homo sapiens, UniProt O43318)
T14 construct: purchased Millipore, Inc. (KinaseProfiler service)
Protocol: as §1

[15] = molecular target: T15, CSK (Homo sapiens, UniProt P41240)
T15 construct: purchased Millipore, Inc. (KinaseProfiler service)
T15 sequence (P41240 whole entry): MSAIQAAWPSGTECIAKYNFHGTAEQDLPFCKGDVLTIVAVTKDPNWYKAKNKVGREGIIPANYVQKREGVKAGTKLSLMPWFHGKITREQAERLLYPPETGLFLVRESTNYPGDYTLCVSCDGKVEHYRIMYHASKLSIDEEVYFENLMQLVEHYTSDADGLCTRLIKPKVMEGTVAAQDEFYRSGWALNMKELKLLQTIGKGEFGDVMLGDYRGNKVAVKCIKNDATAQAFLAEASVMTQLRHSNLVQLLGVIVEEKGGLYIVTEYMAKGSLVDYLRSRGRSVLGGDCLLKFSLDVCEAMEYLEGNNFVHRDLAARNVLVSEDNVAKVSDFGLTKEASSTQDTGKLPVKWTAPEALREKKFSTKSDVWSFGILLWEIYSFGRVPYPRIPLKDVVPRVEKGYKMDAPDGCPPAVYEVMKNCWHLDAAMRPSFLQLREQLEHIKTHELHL
Protocol: as §1

[16] = molecular target: T16, TLK2 (Homo sapiens, UniProt Q86UE8)
T16 construct: purchased Millipore, Inc. (KinaseProfiler service)
T16 sequence (Q86UE8 whole entry): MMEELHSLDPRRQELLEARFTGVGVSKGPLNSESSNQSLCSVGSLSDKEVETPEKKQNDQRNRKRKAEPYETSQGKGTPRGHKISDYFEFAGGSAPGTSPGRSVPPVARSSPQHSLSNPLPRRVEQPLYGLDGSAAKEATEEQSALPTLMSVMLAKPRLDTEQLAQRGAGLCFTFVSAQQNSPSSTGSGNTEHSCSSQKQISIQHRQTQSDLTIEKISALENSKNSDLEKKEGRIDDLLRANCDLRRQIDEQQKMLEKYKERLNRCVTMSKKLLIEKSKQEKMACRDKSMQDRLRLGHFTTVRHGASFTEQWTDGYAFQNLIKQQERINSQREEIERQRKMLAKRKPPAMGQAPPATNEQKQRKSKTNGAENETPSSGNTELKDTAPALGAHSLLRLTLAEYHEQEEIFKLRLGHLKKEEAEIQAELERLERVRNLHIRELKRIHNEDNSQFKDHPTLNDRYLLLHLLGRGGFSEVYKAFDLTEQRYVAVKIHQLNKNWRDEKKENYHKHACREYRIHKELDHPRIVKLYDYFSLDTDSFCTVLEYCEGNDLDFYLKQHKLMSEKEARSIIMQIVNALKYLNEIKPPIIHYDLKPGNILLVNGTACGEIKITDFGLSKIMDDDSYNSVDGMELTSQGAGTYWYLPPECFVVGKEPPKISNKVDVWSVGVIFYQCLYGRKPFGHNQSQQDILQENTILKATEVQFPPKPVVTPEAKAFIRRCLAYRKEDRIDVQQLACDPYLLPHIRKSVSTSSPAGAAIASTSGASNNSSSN
Protocol: as §1

[17] = molecular target: T17, EphB2 (Homo sapiens, UniProt P29323)
T17 construct: purchased Millipore, Inc. (KinaseProfiler service)
Protocol: as §1

[18] = molecular target: T18, LKB1 (Homo sapiens, UniProt Q15831)
T18 construct: purchased Millipore, Inc. (KinaseProfiler service)
Protocol: as §1

[19] = molecular target: T19, CLK2 (Homo sapiens, UniProt P49760)
T19 construct: purchased Millipore, Inc. (KinaseProfiler service)
Protocol: as §1

[20] = molecular target: T20, PTK6 (Homo sapiens, UniProt Q13882)
T20 construct: purchased Millipore, Inc. (KinaseProfiler service)
T20 sequence (Q13882 whole entry): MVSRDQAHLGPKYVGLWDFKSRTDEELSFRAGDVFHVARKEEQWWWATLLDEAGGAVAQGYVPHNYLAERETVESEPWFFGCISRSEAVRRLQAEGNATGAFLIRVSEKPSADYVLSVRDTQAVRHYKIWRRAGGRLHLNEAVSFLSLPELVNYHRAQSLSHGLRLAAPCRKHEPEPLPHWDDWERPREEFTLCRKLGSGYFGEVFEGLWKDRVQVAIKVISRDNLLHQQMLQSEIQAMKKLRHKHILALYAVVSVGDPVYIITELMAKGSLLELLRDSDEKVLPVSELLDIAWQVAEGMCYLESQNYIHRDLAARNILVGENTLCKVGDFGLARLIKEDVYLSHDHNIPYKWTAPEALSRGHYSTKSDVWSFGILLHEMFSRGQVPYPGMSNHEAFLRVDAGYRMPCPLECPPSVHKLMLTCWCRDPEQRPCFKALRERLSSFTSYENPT
Protocol: as §1

[21] = molecular target: T21, DYRK2 (Homo sapiens, UniProt Q92630)
T21 construct: purchased Millipore, Inc. (KinaseProfiler service)
Protocol: as §1

[22] = molecular target: T22, PKCiota (Homo sapiens, UniProt P41743)
T22 construct: purchased Millipore, Inc. (KinaseProfiler service)
Protocol: as §1

[23] = molecular target: T23, PASK (Homo sapiens, UniProt Q96RG2)
T23 construct: purchased Millipore, Inc. (KinaseProfiler service)
Protocol: as §1

[24] = molecular target: T24, CDK2/cyclinE (Homo sapiens, UniProt P24941)
T24 construct: purchased Millipore, Inc. (KinaseProfiler service)
Protocol: as §1

[25] = molecular target: T25, JNK3 (Homo sapiens, UniProt P53779)
T25 construct: purchased Millipore, Inc. (KinaseProfiler service)
Protocol: as §1

[26] = molecular target: T26, PKCdelta (Homo sapiens, UniProt Q05655)
T26 construct: purchased Millipore, Inc. (KinaseProfiler service)
Protocol: as §1

[27] = molecular target: T27, TBK1 (Homo sapiens, UniProt Q9UHD2)
T27 construct: purchased Millipore, Inc. (KinaseProfiler service)
Protocol: as §1

[28] = molecular target: T28, Haspin (Homo sapiens, UniProt Q8TF76)
T28 construct: purchased Millipore, Inc. (KinaseProfiler service)
T28 sequence (Q8TF76 whole entry): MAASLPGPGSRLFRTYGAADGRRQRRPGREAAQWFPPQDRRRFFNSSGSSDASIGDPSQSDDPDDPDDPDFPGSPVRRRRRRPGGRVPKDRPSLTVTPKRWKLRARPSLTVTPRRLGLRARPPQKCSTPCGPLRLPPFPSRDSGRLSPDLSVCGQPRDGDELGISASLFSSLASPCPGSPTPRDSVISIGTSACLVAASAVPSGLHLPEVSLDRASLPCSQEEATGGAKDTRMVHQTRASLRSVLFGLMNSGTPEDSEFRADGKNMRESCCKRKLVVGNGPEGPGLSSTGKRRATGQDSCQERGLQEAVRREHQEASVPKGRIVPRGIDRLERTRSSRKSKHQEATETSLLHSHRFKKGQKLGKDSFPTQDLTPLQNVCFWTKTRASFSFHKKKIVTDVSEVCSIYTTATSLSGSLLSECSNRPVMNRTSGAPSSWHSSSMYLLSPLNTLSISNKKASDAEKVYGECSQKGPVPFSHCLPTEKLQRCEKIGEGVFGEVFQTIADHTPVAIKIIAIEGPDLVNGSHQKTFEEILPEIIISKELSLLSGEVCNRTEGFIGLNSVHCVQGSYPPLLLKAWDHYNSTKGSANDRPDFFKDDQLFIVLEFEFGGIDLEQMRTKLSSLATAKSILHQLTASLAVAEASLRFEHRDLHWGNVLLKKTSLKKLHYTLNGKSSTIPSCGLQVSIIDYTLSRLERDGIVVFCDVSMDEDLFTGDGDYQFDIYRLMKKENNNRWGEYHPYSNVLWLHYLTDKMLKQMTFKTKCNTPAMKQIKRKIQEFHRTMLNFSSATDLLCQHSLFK
Protocol: as §1

[29] = molecular target: T29, PKCgamma (Homo sapiens, UniProt P05129)
T29 construct: purchased Millipore, Inc. (KinaseProfiler service)
Protocol: as §1

[30] = molecular target: T30, ErbB4 (Homo sapiens, UniProt Q15303)
T30 construct: purchased Millipore, Inc. (KinaseProfiler service)
Protocol: as §1

[31] = molecular target: T31, p38alpha (Homo sapiens, UniProt Q16539)
T31 construct: purchased Millipore, Inc. (KinaseProfiler service)
Protocol: as §1

[32] = molecular target: T32, IRAK1 (Homo sapiens, UniProt P51617)
T32 construct: purchased Millipore, Inc. (KinaseProfiler service)
Protocol: as §1

[33] = molecular target: T33, EphA3 (Homo sapiens, UniProt P29320)
T33 construct: purchased Millipore, Inc. (KinaseProfiler service)
Protocol: as §1

[34] = molecular target: T34, NEK6 (Homo sapiens, UniProt Q9HC98)
T34 construct: purchased Millipore, Inc. (KinaseProfiler service)
Protocol: as §1

[35] = molecular target: T35, PKD2 (Homo sapiens, UniProt Q9BZL6)
T35 construct: purchased Millipore, Inc. (KinaseProfiler service)
Protocol: as §1

[36] = molecular target: T36, Txk (Homo sapiens, UniProt P42681)
T36 construct: purchased Millipore, Inc. (KinaseProfiler service)
Protocol: as §1

[37] = molecular target: T37, BTK (Homo sapiens, UniProt Q06187)
T37 construct: purchased Millipore (KinaseProfiler service)
Protocol: as §1

[38] = molecular target: T38, CK1gamma3 (Homo sapiens, UniProt Q9Y6M4)
T38 construct: purchased Millipore, Inc. (KinaseProfiler service)
Protocol: as §1

[39] = molecular target: T39, AKT2 (Homo sapiens, UniProt P31751)
T39 construct: purchased Millipore (KinaseProfiler service)
Protocol: as §1

[40] = molecular target: T40, TEC Activated (Homo sapiens, UniProt P42680)
T40 construct: purchased Millipore, Inc. (KinaseProfiler service)
Protocol: as §1

[41] = molecular target: T41, MINK (Homo sapiens, UniProt Q8N4C8)
T41 construct: purchased Millipore, Inc. (KinaseProfiler service)
Protocol: as §1

T1 sequence (P53355 whole entry): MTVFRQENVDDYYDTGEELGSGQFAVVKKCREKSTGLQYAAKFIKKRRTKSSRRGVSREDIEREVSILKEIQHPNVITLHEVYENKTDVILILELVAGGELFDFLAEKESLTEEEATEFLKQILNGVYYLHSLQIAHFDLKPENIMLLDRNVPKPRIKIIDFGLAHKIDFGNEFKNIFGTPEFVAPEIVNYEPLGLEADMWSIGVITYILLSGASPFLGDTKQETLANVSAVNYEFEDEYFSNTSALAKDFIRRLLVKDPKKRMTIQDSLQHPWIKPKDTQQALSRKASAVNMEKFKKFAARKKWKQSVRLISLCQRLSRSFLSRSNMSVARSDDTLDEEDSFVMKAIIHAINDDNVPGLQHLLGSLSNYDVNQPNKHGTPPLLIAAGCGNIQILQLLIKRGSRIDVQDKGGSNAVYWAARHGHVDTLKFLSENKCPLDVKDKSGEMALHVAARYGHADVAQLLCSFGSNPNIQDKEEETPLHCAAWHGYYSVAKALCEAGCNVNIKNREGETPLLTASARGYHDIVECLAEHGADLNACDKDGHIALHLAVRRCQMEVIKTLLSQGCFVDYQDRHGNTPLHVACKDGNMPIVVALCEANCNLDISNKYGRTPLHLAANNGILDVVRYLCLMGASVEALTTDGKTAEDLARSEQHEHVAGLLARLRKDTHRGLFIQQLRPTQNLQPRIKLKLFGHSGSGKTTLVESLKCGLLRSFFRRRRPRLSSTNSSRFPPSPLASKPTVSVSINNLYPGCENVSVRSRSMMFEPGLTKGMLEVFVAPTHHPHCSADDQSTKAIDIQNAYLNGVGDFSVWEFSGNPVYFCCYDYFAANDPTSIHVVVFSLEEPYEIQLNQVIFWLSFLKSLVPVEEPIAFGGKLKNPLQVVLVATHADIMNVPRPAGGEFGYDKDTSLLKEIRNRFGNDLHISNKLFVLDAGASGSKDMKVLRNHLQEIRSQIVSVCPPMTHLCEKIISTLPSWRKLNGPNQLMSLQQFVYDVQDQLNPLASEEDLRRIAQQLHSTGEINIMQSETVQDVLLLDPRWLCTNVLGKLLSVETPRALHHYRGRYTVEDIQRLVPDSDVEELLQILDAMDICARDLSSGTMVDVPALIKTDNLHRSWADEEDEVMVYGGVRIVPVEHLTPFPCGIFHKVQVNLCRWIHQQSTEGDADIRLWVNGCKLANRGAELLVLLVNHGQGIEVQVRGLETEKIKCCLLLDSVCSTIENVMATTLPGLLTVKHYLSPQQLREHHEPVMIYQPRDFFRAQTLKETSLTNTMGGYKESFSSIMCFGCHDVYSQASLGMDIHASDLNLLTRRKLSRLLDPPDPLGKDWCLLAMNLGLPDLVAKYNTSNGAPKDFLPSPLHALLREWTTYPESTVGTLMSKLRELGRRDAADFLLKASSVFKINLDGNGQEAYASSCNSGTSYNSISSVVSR

Cc1c(-c2cnn(C)c2)nn(-c2ccccc2)c1NC(=O)Nc1sc(C(F)(F)F)nc1-c1ccccc1 [Example 2, 1-(1′,4-dimethyl-1-phenyl-1H,1′H-[3,4′-bipyrazol]-5-yl)-3-(4-phenyl-2-(trifluoromethyl)thiazol-5-yl)urea]
Avg POC [1]: 126.5 POC
Avg POC [2]: 122.5 POC
Avg POC [3]: 102 POC
Avg POC [4]: 113 POC
Avg POC [5]: 103.5 POC
Avg POC [6]: 132.5 POC
Avg POC [7]: 113.5 POC
Avg POC [8]: 73.5 POC
Avg POC [9]: 105.5 POC
Avg POC [10]: 107.5 POC
Avg POC [11]: 142.5 POC
Avg POC [12]: 103 POC
Avg POC [13]: 136 POC
Avg POC [14]: 95.5 POC
Avg POC [15]: 136 POC
Avg POC [16]: 98 POC
Avg POC [17]: 119 POC
Avg POC [18]: 96.5 POC
Avg POC [19]: 118 POC
Avg POC [20]: 113.5 POC
Avg POC [21]: 88 POC
Avg POC [22]: 67 POC
Avg POC [23]: 113 POC
Avg POC [24]: 100 POC
Avg POC [25]: 120 POC
Avg POC [26]: 97 POC
Avg POC [27]: 100.5 POC
Avg POC [28]: 112.5 POC
Avg POC [29]: 90 POC
Avg POC [30]: 125 POC
Avg POC [31]: 91 POC
Avg POC [32]: 107.5 POC
Avg POC [33]: 120 POC
Avg POC [34]: 117.5 POC
Avg POC [35]: 110.5 POC
Avg POC [36]: 163 POC
Avg POC [37]: 123 POC
Avg POC [38]: 114 POC
Avg POC [39]: 171.5 POC
Avg POC [40]: 131 POC
Avg POC [41]: 117.5 POC
